Assay results reported in patent US8466185B2, “Methods and assays for detecting and treating hypoglycemia” (priority 2008, dated 2013).
Entries after “also recorded” stand apart in the source; their conditions may differ.

Experiments:
[1] = test system: human islets; assay: in vitro perifusion, glucagon secretion from human islets; format: cell-based; conditions: for effect on basal glucagon secretion or glucagon responses to glutamate: 100 μM
Method: (§2) A high-capacity, automated perifusion system was developed to dynamically measure hormone secretion from pancreatic islets. A low pulsatility peristaltic pump pushed HEPES-buffered solution (mM: 125 NaCl, 5.9 KCl, 2.56 CaCl2, 1 MgCl2, 25 HEPES, and 0.1% BSA; pH 7.4; and a perifusion rate of 100 μL/min) through a column containing 100 pancreatic islets immobilized in Bio-Gel P-4 Gel (BioRad, Hercules, Calif.). Except otherwise stated, glucose concentration was adjusted to 3 mM for all experiments. Stimuli were applied with the perifusion buffer. The perifusate was collected in an automatic fraction collector designed for a 96 well plate format. The columns containing the islets and the perifusion solutions were kept at 37° C., and the perifusate in the collecting plate was kept at <4° C. Perifusates were collected every minute. Hormone release in the perifusate was determined with the human or mouse Endocrine LINCOplex Kit following manufacturer's instructions (Linco research, St. Charles, Mo.).

[2] = test system: monkey islets and dispersed single islet cells; assay: [Ca^2+]i imaging (Fura-2) of monkey islets and islet cells; format: cell-based, monkey (Macacca fascicularis); conditions: nifedipine 10 μM; for inhibition of [Ca^2+]i responses to kainate: CNQX 10 μM, La^3+ 30 μM
Method: Imaging of [Ca^2+]i was performed as described elsewhere (Cabrera et al., 2006). […] Glucose was added to give a final concentration of 3 mM. Islets or dispersed islet cells were incubated in Fura-2 AM (2 μM; 1 hour) and placed in a closed small-volume imaging chamber (Warner Instruments, Hamden, Conn.). Stimuli were applied with the bathing solution. Islets loaded with Fura-2 were excited alternatively at 340 and 380 nm with a monochromator light source (Cairn. Research Optoscan Monochromator, Cairn Research Ltd, Faversham, UK). Images were acquired with a Hamamatsu camera (Hamamatsu Corp, Japan) attached to a Zeiss Axiovert 200 microscope (Carl Zeiss, Jena, Germany). Changes in the 340/380 fluorescence emission ratio over time were analyzed in individual islets and dispersed cells using Kinetic Imaging AQM Advance software (Kinetic Imaging, N.C.). Peak changes in the fluorescence ratio constituted the response amplitude.

[3] = test system: monkey islets; assay: microfluorometric determination of endogenous glutamate release from islets; format: cell-based; conditions: kainate 100 μM; KCl 30 mM
Method: Endogenous glutamate release from pancreatic islets was measured with the Amplex Red Glutamic Acid Assay Kit (Molecular Probes) adapted for microscopic microfluorometric detection (Akagi et al., 2003). In this assay, released glutamate is a substrate in an enzymatic chain reaction that generates the highly fluorescent product resorufin (Molecular Probes, Eugene, Oreg.). L-glutamate is oxidized by glutamate oxidase to produce α-ketoglutarate, NH4, and H2O2. Hydrogen peroxide reacts with the Amplex Red reagent in a reaction catalyzed by horseradish peroxidase to generate resorufin. Pancreatic islets were allowed to attach to a glass coverslip previously coated with poly-D-lysine. The coverslip was mounted in a closed small-volume imaging chamber (Warner Instruments) and perifused with the HEPES-buffered solution containing the stimuli. Resorufin fluorescence was excited at 510 nm, and the emission recorded at 590 nm using the same imaging system used to measure [Ca^2+]i (see above).

[4] = test system: mouse islets; assay: perifusion, glucagon secretion from mouse islets; format: cell-based, mouse (C57Bl/6)
Method: as §2

[5] = test system: mouse islets; assay: perifusion of mouse islets with β cells destroyed by streptozotocin versus intact islets; format: cell-based; conditions: arginine 5 mM; streptozotocin-treated versus intact islets
Method: This experiment was performed with mouse islets. Two samples were perifused in parallel (“a” and “b”). In “a” (blue curve and blue bar), but not in “b” (red curve and red bar) the β cells were selectively destroyed with streptozotocin. This absence of β cells generates type 1 diabetes-like condition in vitro. The glucagon release profile in panel “A” was obtained by using this model. […] Note that the non specific stimulus arginine is not able to differentiate a functionally impaired α cell in the absence of β cells.
At t=5 min, both samples were stimulated with 100 μM kainate for 5 min. The glucose was increased to 11 mM for 10 minutes and decreased again to 3 mM for the duration of the perifusion. At t=45 min, both samples (v) were stimulated with 5 mM Arginine. […] Kainate is a glutamate analog that is not metabolizable, and therefore a preferred agonist of the AMPA/Kainate receptors. Error bars represent the standards deviations for n=3 perifusions. Comparison were performed by an independent t-test.
For example, in some embodiments the present invention are directed to an in vitro model in which we destroy selectively the beta cells with, for example, streptozotocin, thus creating a situation that mimics type 1 diabetes. The treated islets are composed mainly of alpha cells. […] To examine if alpha cells in islets depleted of beta cells had impaired glutamate signaling, we stimulated them with kainate, an agonist for ionotropic glutamate receptors.

[6] = test system: human islets and dispersed single islet cells; assay: [Ca^2+]i imaging (Fura-2) of human islets and dispersed islet cells; format: cell-based; conditions: CNQX 10 μM
Method: Glucose was added to give a final concentration of 3 mM. Islets or dispersed islet cells were incubated in Fura-2 AM (2 μM; 1 hour) and placed in a closed small-volume imaging chamber (Warner Instruments, Hamden, Conn.). Stimuli were applied with the bathing solution. Islets loaded with Fura-2 were excited alternatively at 340 and 380 nm with a monochromator light source (Cairn. Research Optoscan Monochromator, Cairn Research Ltd, Faversham, UK). Images were acquired with a Hamamatsu camera (Hamamatsu Corp, Japan) attached to a Zeiss Axiovert 200 microscope (Carl Zeiss, Jena, Germany). Changes in the 340/380 fluorescence emission ratio over time were analyzed in individual islets and dispersed cells using Kinetic Imaging AQM Advance software (Kinetic Imaging, N.C.). Peak changes in the fluorescence ratio constituted the response amplitude.

[7] = test system: human islets; format: cell-based; conditions: CNQX 10 μM; measured at 8 minutes after reducing glucose
Method: Perifusion of the islets was stopped after addition of the stimulus to allow the islet secretory products to accumulate and then resumed after 10 minutes.

[8] = test system: isolated human islet cells; assay: whole-cell patch clamp recordings of dispersed human islet cells; format: cell-based; conditions: NBQX 10 μM; kainate 100 μM
Method: Membrane currents were measured using whole-cell patch clamp recordings of dispersed human islet cells. All recordings were amplified using an EPC10 patch-clamp amplifier and digitized and analyzed using Patchmaster software (Heka Elektronik, Lambrecht, Germany). Pipettes were pulled from borosilicate glass capillaries on a horizontal programmable puller (DMZ Universal Puller, Zeitz-Instrumente, Augsburg, Germany). Pipettes with a resistance of 5-7 MΩ were filled with a pipette solution containing (in mM): 150 NMG (N-methyl-D-Glucamine), 10 EGTA, 1 MgCl2, 2 CaCl2, 5 HEPES and 3 Mg-ATP (pH 7.15). The bath solution contained (in mM): 138 NaCl, 5.6 KCl, 1.2 MgCl2, 2.6 CaCl2, 5 HEPES and 10 TEA (pH7.4). Cells were voltage-clamped at −70 mV. Ligands (e.g. kainate) were applied using the SF-77B Perfusion Fast-Step system (Warner Instruments, Hamden, Conn.), which allows rapid change of solutions bathing a single cell or membrane patch attached to a patch electrode. […] Thus, it is most likely that cells responding to kainate in our electrophysiological experiments were α-cells.

[9] = test system: mice; format: in vivo, mouse; conditions: NBQX 20 mg/kg i.p.
Method: (§1) We examined in vivo responses to iGluR agonists by injecting C57BL/6 mice i.p. with either PBS (n=4), monosodium glutamate (30 mg/kg; n=7), or AMPA (15 mg/kg; n=8). To determine whether blocking iGluRs exacerbates insulin-induced hypoglycemia, we injected the AMPA/kainate iGluR antagonist NBQX (Tocris, Ellisville, Mo.) i.p. at 20 mg/kg 30 minutes before mice were treated with insulin to induce hypoglycemia.
In initial experiments, mice were injected with insulin (1.5 U/kg; i.p.) to induce hypoglycemia.

[10] = test system: mice; assay: hyperinsulinemic-hypoglycemic clamp in conscious mice; format: in vivo, mouse; conditions: NBQX 10 mg/kg iv versus saline
Method: To provide a standardized hypoglycemic stimulus we further conducted studies using the hyperinsulinemic-hypoglycemic clamp. At least 4 days before the experiments, mice were anesthetized with isoflurane, and an indwelling catheter was inserted in the left jugular vein and externalized through an incision in a skin flap behind the head. Mice were fasted for 4 hours and placed in individual plastic containers for tail cut sampling. […] A priming dose of insulin (100 mU/kg) was administered, followed by a constant infusion rate of 20 mU/kg/min (Actrapid, Novo Nordisk). The plasma glucose concentration was determined at 10 min intervals using a One Touch Ultra glucose meter. Glucose (30%) was infused at a variable rate to maintain the plasma glucose concentration at the hypoglycemic levels (˜3 mM). At time 50 min, a hyperinsulinemic-hypoglycemic clamp was achieved. Blood glucose levels were kept at the steady state (3 mM) and NBQX was administered as a bolus (10 mg/kg) at time 60 min, followed by infusion (10 mg/kg) until the end of the experiment. A control experiment was performed using saline (0.9% NaCl) following the same protocol used for NBQX. […] Animals were euthanized by an over-dose of pentobarbital.

[11] = test system: C57BL/6 mice; assay: in vivo responses to iGluR agonists injected i.p.; parameters: species or system mouse
Method: as §1

[12] = test system: human islets; assay: in vitro perifusion, insulin release from human islets; conditions: 100 μM
Method: as §2

[13] = test system: monkey islets; assay: in vitro perifusion, insulin release from monkey islets; conditions: 100 μM; not shown

[La+3] [La^3+]
kainate-stimulated glucagon secretion in presence of Ca^2+ channel blockers [1]: strongly diminished | inhibition of [Ca^2+]i responses to kainate [2]: inhibited; also recorded: abolished

COC(=O)C1=C(C)NC(C)=C(C(=O)OC)C1c1ccccc1[N+](=O)[O-] [nifedipine]
reduction of kainate-induced [Ca^2+]i responses [2]: ~60%

[Cl-].[K+] [KCl]
glutamate release (resorufin fluorescence) [3]: induced significant glutamate release; also recorded: elicited large increases in glutamate release

NC1(C(=O)O)C[C@H](C(=O)O)[C@H](C(=O)O)C1 (stereo partly shown) [ACPT-1]
effect on basal glucagon secretion or glucagon responses to glutamate [1]: did not elicit changes in glucagon secretion; also recorded: did not affect basal glucagon secretion or glucagon responses to glutamate | effect on basal or glutamate-induced glucagon secretion ([4]; 100 μM): did not affect basal or glutamate-induced glucagon secretion; also recorded: did not elicit changes in glucagon secretion

N=C(N)NCCC[C@H](N)C(=O)O [arginine]
arginine-induced glucagon release in absence versus presence of β cells [5]: not statistically different

N#Cc1cc2[nH]c(=O)c(=O)[nH]c2cc1[N+](=O)[O-] [CNQX]
block of glutamate-induced glucagon responses ([1]; CNQX 10 μM): could be blocked | block of [Ca^2+]i responses to glutamate [6]: could be blocked | inhibition of [Ca^2+]i responses to kainate [2]: inhibited; also recorded: blocked | inhibition of glucagon response to lowering glucose from 6 mM to 1 mM [7]: 54%

N[C@@]1(C(=O)O)CC[C@@H](C(=O)O)C1 [trans-ACPD]
effect on basal glucagon secretion or glucagon responses to glutamate [1]: did not affect basal glucagon secretion or glucagon responses to glutamate | effect on basal glucagon secretion or glucagon responses to glutamate ([1]; listed as tACPD): did not elicit changes in glucagon secretion | effect on basal or glutamate-induced glucagon secretion ([4]; 100 μM): did not affect basal or glutamate-induced glucagon secretion | effect on basal or glutamate-induced glucagon secretion ([4]; 100 μM, listed as tACPD): did not elicit changes in glucagon secretion

NC(C(=O)O)(c1ccc(P(=O)(O)O)cc1)C1CC1 (stereo not shown) [CPPG]
effect on basal glucagon secretion or glucagon responses to glutamate [1]: did not affect the glutamate-induced glucagon response; also recorded: did not affect basal glucagon secretion or glucagon responses to glutamate | effect on basal or glutamate-induced glucagon secretion ([4]; 100 μM): did not affect basal or glutamate-induced glucagon secretion; also recorded: did not affect the glutamate-induced glucagon response

O=[N+]([O-])c1cc2nc(O)c(O)nc2cc1[N+](=O)[O-] [DNQX]
block of glutamate-stimulated glucagon release ([4]; DNQX 10 μM, glutamate 100 μM): blocked

NS(=O)(=O)c1cccc2c1c([N+](=O)[O-])cc1nc(O)c(O)nc12 [NBQX]
block of kainate-evoked inward currents [8]: could be blocked | sedation [9]: did not cause sedation | insulin-induced drop in glucose plasma levels ([9]; insulin 1.5 U/kg i.p., not shown): increased the insulin-induced drop in glucose plasma levels | glucose infusion rate needed to maintain glycemia (~3 mM) [10]: needed larger infusion rates of glucose; also recorded: significantly larger | plasma glucagon / glucagon secretion in response to hypoglycemia [10]: lower; also recorded: significantly diminished

Cc1o[nH]c(=O)c1CC(N)C(=O)O (stereo not shown) [AMPA]
glucagon release / glucagon secretion ([1]; agonist 100 μM, 3 mM glucose): elicited strong glucagon secretion; also recorded: Increases in glucagon release could also be elicited | glucagon release / secretion ([4]; 100 μM): stimulated glucagon secretion | convulsions indicative of central nervous penetration ([11]; AMPA 15 mg/kg i.p.): did not induce convulsions | plasma insulin concentrations ([11]; glutamate 30 mg/kg, AMPA 15 mg/kg, i.p.): not affected; also recorded: did not change | plasma glucagon concentrations ([11]; glutamate 30 mg/kg, AMPA 15 mg/kg, i.p., 30 minutes after treatment): increased plasma glucagon concentrations | plasma glucose concentrations ([11]; glutamate 30 mg/kg, AMPA 15 mg/kg, i.p., thirty minutes after injection): increased glucose levels; also recorded: increased plasma glucose concentrations | insulin release [12]: Neither kainate (100 μM), glutamate (100 μM), nor AMPA (100 μM) stimulated increases in insulin release | insulin release [13]: Neither kainate (100 μM), glutamate (100 μM), nor AMPA (100 μM) stimulated increases in insulin release
